From patent US20140113314A1, “Two Pore Channels as a Therapeutic Target to Protect Against Myocardial Ischemia and as an Adjuvant in Cardiac Surgery” (priority 2006, published 2014)
Entries after “also recorded” stand apart in the source; their conditions may differ. Where two headings read alike, the source gives them in different places.

Legend:
[1] = tested on: NaCN induced current from isolated guinea pig ventricular myocytes; assay: NaCN induced outward current, whole-cell patch clamp in single ventricular myocytes; assay type: cell-based; settings: for sensitivity of NaCN induced current in the presence of altered internal pH: quinidine 0.5 mM (pHin 6.0), Zn^2+ 5 mM (pHin 9.0); for peak current densities induced by NaCN in the presence of blocker / ratio of peak current density induced by NaCN in the presence of blocker to that on exposure to NaCN alone: blocker 200 μM
[2] = tested on: NaCN induced current from isolated guinea pig ventricular myocytes; settings: Ba^2+ 5 mM, extracellular, previously demonstrated; cited from earlier work
[3] = tested on: temperature jump (TJ) induced current in guinea pig myocytes; assay: Temperature jump (TJ) induced current in myocytes; assay type: cell-based
Text: FIG. 15. The characterization of temperature jump (TJ) induced current in guinea pig myocytes. A. Sample trace of TJ induced outward current. Note the current can decay on its own. B. The TJ induced current (upper panel) and its I/V relationships (lower panel). Cells were held at […] and were subject to depolarizing voltage ramps from […] to +50 mV (250 ms duration) with a frequency of 0.1 Hz. Since the current measured at the peak c is out of the current amplitude range of the amplifier, another point near the peak (b) was chosen to construct the I/V curves of the current. C, D, E, and F. Biophysical properties of TREK-1 a heat-activated K2P channel. […] I. Summary of the inhibitory effects of Zn^2+ and quinidine on the TJ induced current (unpaired p<0.01, t-test).

myocytes = assay: Myocyte shrinkage associated with the NaCN induced current; assay type: cell-based, guinea pig; settings: quinidine 0.5 mM, Zn2+ 3 mM
IKATP = IKATP activated by pinacidil together with low intracellular ATP, patch clamp in myocytes; assay type: cell-based, guinea pig; settings: for effect on IKATP: IKATP activated by pinacidil 100 μM with intracellular ATP 0.1 mM, Zn^2+ 3 mM
Protocol: All the cells were held at 0 mV.
Single Guinea pig heart cell preparation. Single cardiac myocytes were enzymatically isolated from adult male guinea pig hearts as described in (Gao et al 1992, J Physiol 449:689-704). Guinea pigs, weighing 300 to 500 g, were sacrificed by peritoneal injection with sodium pentobarbital solution (1 ml of 390 mg/ml) in accordance with an approved protocol approved by the IACUC committee at SUNY-Stony Brook. The heart was isolated and placed in Ca^2+ free Tyrode solution and the aorta was cannulated. The heart was then perfused with 50 ml of Ca2+ free Tyrode solution followed by 100 ml of Tyrode solution containing 30 mol/L CaCl2 and 0.4 mg/ml collagenase at 37° C. The heart was then placed in Ca^2+ free Tyrode solution at room temperature for 2 hours. Afterward, a piece of the ventricle was dissected and teased into smaller pieces in Kraft-Brühe (KB) solution (Isenberg et al., 1982 Pflugers Arch 395:6-18) containing (in mM): KCl 83; K2HPO4 30; MgSO4 5; Na-Pyruvic Acid 5; β-OH-Butyric Acid 5; Creatine 5; Taurine 20; Glucose 10; EGTA 0.5; KOH 2; Na2-ATP 5; pH was adjusted to 7.2 by KOH. The dissociated cells were then kept in KB solution at room temperature for at least 1 hour before the experiment. All solutions were bubbled with 100% O2. The isolated cells were stored in KB solution. An Axopatch 1D amplifier (Axon Instruments, Inc) and the patch clamp technique were employed to observe cell membrane current. Patch-pipette resistances were 2 to 3 MΩ before sealing. The pipette solution contained (in mM): K-Aspartic Acid 125; KCl 15; KOH 10; MgCl2 1; HEPES 10; EGTA 11; Mg-ATP 1; pH was adjusted to 7.2 by KOH. The external Tyrode solution contained (in mM): NaCl 137.7; NaOH 2.3; KCl 4; MgCl2 1; HEPES 5; CaCl2 1; CdCl2 1; Glucose 10; pH was adjusted to 7.4 by NaOH. Under these conditions, the L-type Ca^2+ current, the Na^+/Ca^2+ exchange current and the Na^+/K^+ pump current will be absent. […] All experiments were carried out at room temperature (22±1° C.). […] All patch clamp data were digitized by the data acquisition program pClamp8 (Axon Instruments, Inc) for later analysis. Cell capacitance was obtained for each cell and currents were normalized to cell capacitances.

With `[Ba+2].[Cl-].[Cl-]` [Ba^2+, BaCl2] the “effect on NaCN induced current” value ([1]; Ba^2+ 20 mM) was “can prevent the appearance of the NaCN induced current”, the “effect on NaCN induced current” value ([1]; Ba^2+ 20 mM, listed as Ba2+) was “abolished” and the “effect on NaCN induced current” value ([1]; Ba^2+ 5-10 mM) was “Partial inhibition”. For the same compound, the “effect on NaCN induced current” value ([1]; Ba^2+ 20-40 mM) was “almost complete elimination”, the “effect on NaCN induced current” value ([1]; agent 1 mM) was “neither Ba^2+ (1 mM, upper panel) nor Cs^+ (3 mM, lower panel) can prevent the appearance of the NaCN induced current” and the “effect on NaCN induced current” value [2] was “partially blocked”.

For `[Cl-].[Cl-].[Zn+2]` [Zn^2+, ZnCl2], the “effect on NaCN induced current” value ([1]; Zn^2+ 5 mM) was “completely abolish”, the “effect on NaCN induced current” value ([1]; agent 3 mM) was “reversibly abolished; also recorded: can prevent the appearance of the current induced by NaCN” and the “effect on NaCN induced current” value ([1]; agent 3 mM, listed as ZnCl2) was “completely blocked; also recorded: abolished”. For the same compound, the “sensitivity of NaCN induced current in the presence of altered internal pH” value [1] was “remains sensitive”, the “effect on TJ induced current” value [3] was “can prevent the appearance of TJ induced current” and the “effect on NaCN induced current and cell shrinkage” value (myocytes) was “prevent the appearance of the NaCN induced current and cell shrinkage”. The “effect on IKATP” value (IKATP) was “cannot be blocked; also recorded: unaffected”.

With `N=C(N)NCCC[C@H](N)C(=O)O` [L-arginine] the “effect on NaCN induced current” value [1] was “can additionally activate an outward current; also recorded: increases the NaCN induced current”.

For `CCCCC/C=C\C/C=C\C/C=C\C/C=C\CCCC(=O)N[C@H](C)CO` [methanandamide], the “effect on NaCN induced current” value ([1]; methanandamide 20 μM) was “does not block the current induced by NaCN”, the “effect on NaCN induced current” value ([1]; methanandamide 20 μM to 100 μM) was “does not prevent the appearance of the NaCN induced current” and the “effect on NaCN induced current” value ([1]; methanandamide 40 and 100 μM) was “significant increase”. The “effect on NaCN induced current” value ([1]; methanandamide 40 and 100 μM, listed as Methanandamide) was “significantly increased”.

For `Nc1ccncc1` [4AP, 4-Aminopyridine], the “peak current densities of NaCN induced current with blocker” value ([1]; 4AP 4 mM, n=6) was 24.1±5.2 pA/pF and the “effect on NaCN induced current” value ([1]; agent 4 mM) was “not reduced”.

In the case of `C=C[C@H]1C[N@@]2CC[C@H]1C[C@@H]2[C@@H](O)c1ccnc2ccc(OC)cc12` [quinidine], the “effect on NaCN induced current” value ([1]; agent 1 mM) is reported as “can prevent the appearance of the current induced by NaCN”, the “effect on NaCN induced current” value ([1]; quinidine 0.5 mM) is reported as “completely abolished; also recorded: can both block the peak current induced by NaCN and prevent its occurrence” and the “sensitivity of NaCN induced current in the presence of altered internal pH” value [1] is reported as “remains sensitive”. The “effect on TJ induced current” value [3] was “partially blocked”, the “effect on NaCN induced current and cell shrinkage” value (myocytes) was “prevent the appearance of the NaCN induced current and cell shrinkage” and the “effect on IKATP” value (IKATP) was “unaffected”.

For `CCCCCC(O)CCCC(=O)O` (centres unmarked) [5-HD, 5-hydroxydecanoic acid], the “effect on NaCN induced current” value ([1]; agent 200 μM) was “does not inhibit the NaCN induced current; also recorded: does not result in a reduced current amplitude”, the “peak current densities induced by NaCN in the presence of blocker” value [1] was 24.7±2.6 pA/pF and the “ratio of peak current density induced by NaCN in the presence of blocker to that on exposure to NaCN alone” value [1] was 1.3±0.1.

For `COC(=O)[C@@H](N)CCCNC(=N)N[N+](=O)[O-]` [L-NAME], the “effect on NaCN induced current” value ([1]; agent 200 μM) was “reduced; also recorded: reduces the current”.

With `[Cl-].[Cs+]` [Cs^+, CsCl] the “peak current densities of NaCN induced current with blocker” value ([1]; Cs^+ 3 mM, n=5) was 19.1±2.4 pA/pF, the “effect on NaCN induced current” value ([1]; agent 3 mM, listed as Cs+) was “insensitive” and the “effect on NaCN induced current” value ([1]; agent 3 mM, listed as CsCl) was “not affected”.

For `COc1ccc(Cl)cc1C(=O)NCCc1ccc(S(=O)(=O)NC(=O)NC2CCCCC2)cc1` [glibenclamide], the “effect on NaCN induced current” value ([1]; agent 200 μM) was “does not prevent the appearance of the NaCN induced current; also recorded: could not be abolished”, the “peak current densities induced by NaCN in the presence of blocker” value [1] was 23.0±2.1 pA/pF and the “ratio of peak current density induced by NaCN in the presence of blocker to that on exposure to NaCN alone” value [1] was 1.2±0.1. For the same compound, the “effect on IKATP” value (IKATP) was “abolished”.

In the case of `CC(N/C(=N\C#N)Nc1ccncc1)C(C)(C)C` (centres unmarked) [pinacidil], the “activation of IKATP” value (IKATP; pinacidil 100 μM together with low intracellular ATP 0.1 mM) is reported as “activated”.
